ChEMBL document CHEMBL1141190, “Synthesis and structure-activity relationships of 1,2,4-triazoles as a novel class of potent tubulin polymerization inhibitors” (Bioorg Med Chem Lett, 2005)

Legend:
A-431 [1] = test: Cell cycle arrest in A431 cells by accumulation at G2/M phase cell at 0.1uM; type: functional; conditions: Homo sapiens
A-431 [2] = test: Cell cycle arrest in A431 cells by accumulation at G2/M phase cell; type: functional, cell-based; conditions: Homo sapiens
Tubulin (Bos taurus) [3] = target: T1, Tubulin (Bos taurus) (UniProt Q6B856+Q862L2+Q862F3); conditions: at 10 µM
Description: Inhibition of tubulin polymerization in bovine brain at 10 uM

Tubulin = test: Displacement of [3H]colchicine from tubulin; type: protein-complex assay, Homo sapiens
Tubulin (Bos taurus) [4] = target: T1, Tubulin (Bos taurus); test: Inhibition of tubulin polymerization in bovine brain at 3.33 uM

Row | Structure (SMILES) | inhibition at 0.1 µM (A-431 [1]) [%] | EC50 (A-431 [2]) [µM] | inhibition (Tubulin (Bos taurus) [3]) [%] | Ki (Tubulin) [µM] | inhibition (Tubulin (Bos taurus) [4]) [%]
1 | COc1ccc(Nc2n[nH]c(-c3cccnc3Nc3cc(OC)cc(OC)c3)n2)cc1 | 68 | 0.083 | 73 | – | –
2 | COc1cc2c(c(OC)c1OC)-c1ccc(O)cc1[C@@H](N)CC2 [COLCHINOL] | – | 0.0435 | – | 1.85 | –
3 | c1cnc(NCc2ccncc2)c(-c2n[nH]c(Nc3ccc4c(c3)OCO4)n2)c1 | 70 | 0.066 | 84 | – | –
4 | COc1ccc(/C=C\c2cc(OC)c(OC)c(OC)c2)cc1O [COMBRETASTATIN A4] | 88 | – | – | – | –
5 | COc1cc(Nc2ncccc2-c2nc(Nc3cc(OC)ccc3OC)n[nH]2)cc(OC)c1 | 20 | > 10 | 33 | – | –
6 | COc1cc(Nc2ccncc2-c2n[nH]c(Nc3ccc4c(c3)OCCO4)n2)cc(OC)c1 | 77 | 0.0053 | 100 | – | –
7 | Fc1cccc(Oc2ncccc2-c2n[nH]c(Nc3ccc4c(c3)OCO4)n2)c1 | 37 | – | – | – | 43
8 | Fc1ccc(CNc2ncccc2-c2n[nH]c(Nc3ccc4c(c3)OCCO4)n2)cc1F | 32 | – | 84 | – | –
9 | COc1cc(Nc2nccnc2-c2n[nH]c(Nc3ccc4c(c3)OCO4)n2)cc(OC)c1 | 85 | 0.017 | 89 | – | –
10 | COc1cc(OC)cc(Oc2ncccc2-c2n[nH]c(Nc3cc(F)cc(F)c3)n2)c1 | 27 | – | 87 | – | 51
11 | COc1cc(Nc2ncccc2-c2nnc(Nc3ccc4c(c3)OCCO4)n2C)cc(OC)c1 | 25 | 0.24 | – | – | 64
12 | COc1cccc(Nc2n[nH]c(-c3cccnc3Nc3ccccc3)n2)c1 | – | – | 4 | – | –
13 | COc1cc(OC)cc(Oc2ncccc2-c2n[nH]c(Nc3cccnc3)n2)c1 | 61 | 0.066 | – | – | 49
14 | COc1cc(O)cc(Oc2ncccc2-c2n[nH]c(Nc3ccc4c(c3)OCO4)n2)c1 | 83 | 0.012 | – | – | 80
15 | COc1cccc(Nc2nnc(-c3cccnc3Nc3cc(OC)cc(OC)c3)[nH]2)c1 | – | – | – | 0.1 | –
16 | COc1cc(Nc2ncccc2-c2n[nH]c(Nc3ccc(C#N)cc3)n2)cc(OC)c1 | – | – | 34 | – | –
17 | COc1cc(OC)cc(Oc2ncccc2-c2n[nH]c(Nc3ccc(N(C)C)cc3)n2)c1 | 86 | 0.031 | 98 | – | 76
18 | COc1cc(OC)cc(Oc2ccncc2-c2n[nH]c(Nc3ccc4c(c3)OCCO4)n2)c1 | 86 | 0.013 | – | – | 96
19 | COc1cc(Nc2ncccc2-c2nc(-c3cccc(OC)c3)n[nH]2)cc(OC)c1 | – | – | 15 | – | –
20 | COc1cc(OC)cc(Oc2ncccc2-c2nc(N(C)c3cccc(OC)c3)n[nH]2)c1 | – | – | – | – | 5

Row | Structure (SMILES) | inhibition at 0.1 µM (A-431 [1]) [%] | EC50 (A-431 [2]) [µM] | inhibition (Tubulin (Bos taurus) [3]) [%] | Ki (Tubulin) [µM] | inhibition (Tubulin (Bos taurus) [4]) [%]
21 | COc1cc(Nc2ncccc2-c2n[nH]c(Nc3ccc(N(C)C)cc3)n2)cc(OC)c1 | – | – | 35 | – | –
22 | CN(C)c1cccc(Oc2ncccc2-c2n[nH]c(Nc3ccc4c(c3)OCO4)n2)c1 | 63 | 0.011 | – | – | 53
23 | COc1ccc(C(=O)Nc2n[nH]c(-c3cccnc3Oc3cc(OC)cc(OC)c3)n2)cc1 | – | – | – | – | 8
24 | COc1cccc(CN(C)c2n[nH]c(-c3cccnc3Oc3cc(OC)cc(OC)c3)n2)c1 | – | – | – | – | 28
25 | COc1ccc(CNc2n[nH]c(-c3cccnc3Oc3cc(OC)cc(OC)c3)n2)cc1 | 28 | – | 86 | – | –
26 | Fc1cc(F)cc(Oc2ncccc2-c2n[nH]c(Nc3ccc4c(c3)OCO4)n2)c1 | 23 | – | – | – | 97
27 | Fc1cc(F)cc(Nc2ncccc2-c2n[nH]c(Nc3ccc4c(c3)OCO4)n2)c1 | – | – | 28 | – | –
28 | COc1cc(Nc2n[nH]c(-c3cccnc3Oc3cc(OC)cc(OC)c3)n2)cc(OC)c1 | 87 | 0.023 | 99 | – | 73
29 | COc1ccc(CNc2n[nH]c(-c3cccnc3Nc3cc(OC)cc(OC)c3)n2)cc1 | 22 | – | 88 | – | –
30 | COc1cc(OC)cc(Oc2ncccc2-c2n[nH]c(Nc3cccc(O)c3)n2)c1 | 86 | 0.01 | 100 | – | 83
31 | COc1ccc(CNc2ncccc2-c2n[nH]c(Nc3ccc4c(c3)OCCO4)n2)cc1 | 30 | – | 68 | – | –
32 | COc1cc(OC)cc(Oc2cnccc2-c2n[nH]c(Nc3ccc4c(c3)OCCO4)n2)c1 | 40 | 0.21 | – | – | 59
33 | COc1cc2c(c(OC)c1OC)-c1ccc(OC)c(=O)cc1[C@@H](NC(C)=O)CC2 [COLCHICINE] | 80 | 0.0028 | – | – | –
34 | COc1cc(OC)cc(Oc2ccccc2-c2n[nH]c(Nc3ccc4c(c3)OCCO4)n2)c1 | 82 | 0.0066 | – | – | 65
35 | c1cncc(CCNc2ncccc2-c2n[nH]c(Nc3ccc4c(c3)OCCO4)n2)c1 | – | – | 23 | – | –
36 | COc1cc(Nc2ccncc2-c2n[nH]c(Nc3ccc4c(c3)OCO4)n2)cc(OC)c1 | 84 | 0.0094 | 100 | – | –
37 | COc1cc(OC)cc(Oc2ncccc2-c2nnc(Nc3ccc4c(c3)OCCO4)n2C)c1 | – | – | – | – | 30
38 | c1ccc(Oc2ncccc2-c2nc(Nc3ccc4c(c3)OCO4)n[nH]2)nc1 | 21 | – | – | – | 43
39 | O=C1CCCN1CCCNc1ncccc1-c1n[nH]c(Nc2ccc3c(c2)OCCO3)n1 | – | – | 21 | – | –
40 | COc1cc(OC)cc(Oc2ncncc2-c2n[nH]c(Nc3ccc4c(c3)OCCO4)n2)c1 | 83 | 0.044 | – | – | 69

Row | Structure (SMILES) | inhibition at 0.1 µM (A-431 [1]) [%] | EC50 (A-431 [2]) [µM] | inhibition (Tubulin (Bos taurus) [3]) [%] | Ki (Tubulin) [µM] | inhibition (Tubulin (Bos taurus) [4]) [%]
41 | COc1cc(Nc2ncccc2-c2nc(Nc3ccc4c(c3)OCCO4)n(C)n2)cc(OC)c1 | 26 | 0.13 | 76 | – | –
42 | COc1cc(Nc2ncccc2-c2nc(Nc3ccc(OC)cc3OC)n[nH]2)cc(OC)c1 | 17 | – | 47 | – | –
43 | COc1cc(OC)cc(Oc2ncccc2-c2n[nH]c(NCc3ccc4c(c3)OCO4)n2)c1 | 24 | – | – | – | 90
44 | COc1cc(OC)cc(Oc2ncccc2-c2n[nH]c(Nc3ccc(C#N)cc3)n2)c1 | 27 | – | 97 | – | 57
45 | COc1cc(OC)cc(Oc2ncccc2-c2n[nH]c(N(C)c3ccncc3)n2)c1 | 44 | – | 68 | – | –
46 | COc1cccc(CNc2n[nH]c(-c3cccnc3Nc3cc(OC)cc(OC)c3)n2)c1 | 71 | 0.12 | 100 | – | –
47 | Fc1ccc(CNc2ncccc2-c2n[nH]c(Nc3ccc4c(c3)OCO4)n2)cc1F | 23 | – | 84 | – | –
48 | COc1cc(Oc2ncccc2-c2n[nH]c(Nc3ccc4c(c3)OCO4)n2)cc(OC)c1OC | 86 | 0.016 | – | – | 89
49 | COc1cc(Nc2ncccc2-c2nnc(Nc3ccc4c(c3)OCCO4)[nH]2)cc(OC)c1 | – | – | – | 0.16 | –
50 | Cc1cc(C)cc(Oc2ncccc2-c2n[nH]c(Nc3ccc4c(c3)OCO4)n2)c1 | 83 | 0.01 | – | – | 52
51 | COc1cc(Nc2ncncc2-c2n[nH]c(Nc3ccc4c(c3)OCCO4)n2)cc(OC)c1 | 68 | 0.053 | 100 | – | –
52 | COc1cc(Nc2ncccc2-c2n[nH]c(Nc3ccc4c(c3)OCCO4)n2)cc(OC)c1 | 83 | 0.117 | 95 | – | –
53 | COc1cc(Nc2n[nH]c(-c3cccnc3Nc3cc(OC)cc(OC)c3)n2)cc(OC)c1 | – | – | 45 | – | –
54 | COc1cc(Nc2ncccc2-c2n[nH]c(Nc3cc(Cl)cc(Cl)c3)n2)cc(OC)c1 | – | – | 44 | – | –
55 | COc1cccc(Nc2n[nH]c(-c3cccnc3Nc3cc(F)cc(F)c3)n2)c1 | – | – | 0 | – | –
56 | COc1cc(Nc2ncccc2-c2n[nH]c(Nc3ccccc3)n2)cc(OC)c1 | 22 | > 10 | 5 | – | –
57 | COc1cccc(Cc2n[nH]c(-c3cccnc3Nc3cc(OC)cc(OC)c3)n2)c1 | – | – | 9 | – | –
58 | COc1cccc(CNc2n[nH]c(-c3cccnc3Oc3cc(OC)cc(OC)c3)n2)c1 | 32 | – | 100 | – | –
59 | COc1cccc(Nc2n[nH]c(-c3cccnc3Nc3cccc(OC)c3)n2)c1 | – | – | 9 | – | –
